Where a SMILES comes first, the peptide text is derived from it. [ ]: non-standard residue; d: D form. Aib = CC(C)(N)C(=O)O

IC50 and EC50 data for 4 molecules are collected here from patent publication US9657079B2, “Truncated GLP-1 derivatives and their therapeutical use” (Novo Nordisk A/S, priority 2007, dated 2017).

For assay [1], the target named is T1, human GLP-1 receptor (Homo sapiens, UniProt P43220).
T1 construct: expressed in transfected cells; purified plasma membranes
The assay is described as follows: Displacement of 125I-GLP-1 from the GLP-1 receptor, BHK tk-ts13 membranes (SPA). To be noted: displacement of 125I-GLP-1, BHK tk-ts13 membranes, read-out: IC50, binding affinity to the GLP-1 receptor. The source says: In a second aspect, the GLP-1 analogue or derivative thereof (“GLP-1 compound”) has a high affinity to the GLP-1 receptor. The affinity to the GLP-1 receptor may be determined as described in Example 23, i.e. by way of displacement of ^125I-GLP-1 from the receptor. BHK cells may be used for membrane preparation, preferably strain tk-ts13. The membranes may be purified, preferably as described in Example 23, A preferred binding assay method is the SPA assay of Example 23.
The binding affinity of a number of GLP-1 compounds of the invention (compounds of Examples 1-7, and 9-18) to the human GLP-1 receptor was measured by way of their ability to displace ^125I-GLP-1 from the receptor.
Species (in vitro): Hamster
Biological End Point: Receptor Binding
The cells (approx. 80% confluence) were washed twice in PBS and harvested (PBS+EDTA or Versene), following which they were separated by centrifugation at 1000 rpm for 5 min. The cells/cell pellet must be kept on ice to the extent possible in the subsequent steps. The cell pellet was homogenised with Ultrathurrax for 20-30 seconds in a suitable amount of Buffer 1 (depending on the amount of cells, but e.g. 10 ml). The homogenate as centrifuged at 20000 rpm for 15 minutes. The pellet was resuspended (homogenised) in 10 ml Buffer 2 and re-centrifuged. This step was repeated once more. The resulting pellet was resuspended in Buffer 2, and the protein concentration was determined. The membranes were stored at −80° C.
Buffer 1: 20 mM Na-HEPES+10 mM EDTA, pH 7.4
Buffer 2: 20 mM Na-HEPES+0.1 mM EDTA, pH 7.4
Test compounds/peptides, membranes, SPA-particles and [^125I] are diluted in assay buffer. 25 ul (micro liter) of test compounds/peptides are added to Optiplate. Buffer is added (50 ul). Add 5-10 ug protein/sample (50 ul) corresponding to 0.1-0.2 mg protein/ml (to be preferably optimised for each membrane preparation). Add SPA-particles (Wheatgerm agglutinin SPA beads) RPNQ 0001) 0.5 mg/well (50 ul). Start the incubation with [I^125]-GLP-1 (final concentration 0.05 nM corresponding to 49.880 DPM, 25 ul). The plates are sealed with PlateSealer. Incubate for 120 minutes at 30° C. while shaking. The plates are centrifuged (1500 rpm, 10 min) and counted in Topcounter.
Assay buffer: 50 mM HEPES
(Loss of bound radioactivity is the signal in a displacement assay; it reports binding, not function.)

In assay [2] the target is T1, human GLP-1 receptor. As to the kind of experiment: Stimulation of cAMP formation, plasma membranes from BHK467-12A (tk-ts13) cells, AlphaScreen cAMP kit. The format is biochemical. The settings on record: membranes of BHK467-12A (tk-ts13) expressing the human GLP-1 receptor; read-out: potency (EC50), cAMP formation. The method, then: In particular embodiments (i) baby hamster kidney (BHK) cells expressing the cloned human GLP-1 receptor are used, preferably BHK-467-12A, more preferably BHK-467-12A (tk-ts13); (ii) the cells are grown in DMEM media with the addition of 100 IU/mL penicillin, 100 μg/mL streptomycin, 5% fetal calf serum and 0.5 mg/mL Geneticin G-418 (Life Technologies), preferably at 5% CO2; (iii) the cells, preferably at approximately 80% confluence, are washed twice in phosphate buffered saline; (iv) the cells are harvested with an aqueous solution of tetrasodium salt of ethylenediaminetetraacetic acid, such as Versene; (v) plasma membranes are prepared from the cells by homogenisation, preferably in buffer 1; the homogenate is centrifuged, e.g. at 48,000×g for 15 min at 4° C.; and/or (vii) the pellet is suspended by homogenization in buffer 2. Steps (vi) and (vii) are preferably repeated, e.g. one or two times more.
The functional receptor assay may be carried out as described in Example 21 by measuring cyclic AMP (cAMP) as a response to stimulation by the insulinotropic agent. cAMP formed is preferably quantified by the AlphaScreen™ cAMP Kit (Perkin Elmer Life Sciences). Incubations may be carried out in half-area 96-well microtiter plates in a total volume of 50 μL buffer 3 (50 mM Tris-HCI, 5 mM HEPES, 10 mM MgCl2, pH 7.4) and with the following additions: 1 mM ATP, 1 μM GTP, 0.5 mM 3-isobutyl-1-methylxanthine (IBMX), 0.01% Tween-20, 0.1% BSA, 6 μg membrane preparation, 15 μg/mL acceptor beads, 20 μg/mL donor beads preincubated with 6 nM biotinyl-cAMP. Analogues or derivatives to be tested for agonist activity are preferably dissolved and diluted in buffer 3. GTP is freshly prepared for each experiment. […]
For comparison, the potency of truncated natural, human GLP-1(7-33) was also determined.
Purified plasma membranes from a stable transfected cell line, BHK467-12A (tk-ts13), expressing the human GLP-1 receptor was stimulated with GLP-1 compound in question, and the potency of cAMP production was measured using the AlphaScreen™ cAMP Assay Kit from Perkin Elmer Life Sciences. […]
Cells at approximate 80% confluence are washed 2× with PBS (Phosphate Buffered Saline) and harvested with Versene (aqueous solution of the tetrasodium salt of ethylenediaminetetraacetic acid), centrifuged 5 min at 1000 rpm and the supernatant removed. […] Suspension in Buffer 2, homogenization and centrifugation is repeated once and the membranes are resuspended in Buffer 2 and ready for further analysis or stored at −80° C.
The functional receptor assay was carried out by measuring the peptide induced cAMP production by The AlphaScreen Technology. […] Formed cAMP is counted and measured at a Alpha Fusion Microplate Analyzer. […]

Assay [3] addresses T2, isolated N-terminal extracellular domain of the GLP-1R receptor (nGLP-1R) (Homo sapiens, UniProt P43220).
T2 construct: isolated N-terminal extracellular domain of the GLP-1R receptor (nGLP-1R); made in house
The assay is described as follows: Displacement of 125I-Exendin-4(9-39) from nGLP-1R (SPA). To be noted: SPA beads, read-out: affinity to nGLP-1R (IC50). The format is binding. The procedure:
The protein is then biotinylated and immobilized, preferably on streptavidin-coated SPA beads. The nGLP1R in a suitable buffer such as 0.1M NaHCO3 may be biotinylated using 75 μg BNHS (Sigma H1759) to 1 mg protein. The biotinylated nGLP1R is subsequently preferably dialyzed against PBS. […] The plates are incubated on a shaker, preferably at RT for 3 hours. The SPA particles may be spun down by centrifugation, e.g. for 10 min at 1500 rpm, and the plates are counted, e.g. in a TopCount-NXT (PerkinElmer).
The nGLP1R in 0.1M NaHCO3 was biotinylated using 75 μg BNHS (Sigma H1759) to 1 mg protein. The biotinylated nGLP1R was subsequently dialyzed against PBS. All reagents and derivatives were diluted in PBS with 0.05% v/v Tween 20. […] The plates were incubated on a shaker at RT for 3 hours. The SPA particles were spun down by centrifugation for 10 min at 1500 rpm and the plates were counted in a TopCount-NXT (PerkinElmer).

T1 sequence (P43220 24-463): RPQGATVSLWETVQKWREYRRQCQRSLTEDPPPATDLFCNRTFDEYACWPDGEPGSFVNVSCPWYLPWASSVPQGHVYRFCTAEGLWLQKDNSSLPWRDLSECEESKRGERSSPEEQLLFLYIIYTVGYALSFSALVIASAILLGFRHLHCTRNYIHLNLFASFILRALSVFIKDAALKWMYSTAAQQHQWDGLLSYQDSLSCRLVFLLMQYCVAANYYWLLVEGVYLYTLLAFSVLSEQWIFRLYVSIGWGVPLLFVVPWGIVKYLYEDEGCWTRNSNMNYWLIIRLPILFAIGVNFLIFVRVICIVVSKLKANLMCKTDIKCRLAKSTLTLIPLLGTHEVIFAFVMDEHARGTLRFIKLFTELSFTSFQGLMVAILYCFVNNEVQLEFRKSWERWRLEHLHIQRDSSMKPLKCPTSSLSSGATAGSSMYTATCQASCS
T2 sequence (P43220 24-139 limits assumed): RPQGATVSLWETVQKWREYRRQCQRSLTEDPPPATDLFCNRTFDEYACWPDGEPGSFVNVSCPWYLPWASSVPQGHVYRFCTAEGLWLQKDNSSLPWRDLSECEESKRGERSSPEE

For the molecule `CC[C@H](C)[C@H](NC(=O)[C@H](Cc1ccccc1)NC(=O)[C@H](CCC(=O)O)NC(=O)[C@H](CCCNC(=N)N)NC(=O)[C@@H](NC(=O)[C@H](C)NC(=O)[C@H](CCC(N)=O)NC(=O)[C@H](CCC(=O)O)NC(=O)[C@H](CCC(=O)O)NC(=O)[C@H](CC(C)C)NC(=O)[C@H](Cc1ccc(O)cc1)NC(=O)[C@H](CO)NC(=O)[C@H](CO)NC(=O)[C@@H](NC(=O)[C@H](CC(=O)O)NC(=O)[C@H](CO)NC(=O)[C@@H](NC(=O)[C@H](Cc1ccccc1)NC(=O)[C@@H](NC(=O)CNC(=O)[C@H](CCC(=O)O)NC(=O)[C@H](C)NC(=O)[C@@H](N)Cc1c[nH]cn1)[C@@H](C)O)[C@@H](C)O)C(C)C)C(C)C)C(=O)N[C@@H](C)C(=O)N[C@@H](Cc1c[nH]c2ccccc12)C(=O)N[C@@H](CC(C)C)C(=O)N[C@H](C(N)=O)C(C)C` [Example 4, [Glu22, Val25, Arg26] GLP-1 (7-33)amide] (H-HAEGTFTSDVSSYLEEQAVREFIAWLV-NH2), the IC50 (commonly the concentration needed to halve the response being measured) fell in the range of 0.24 to 44 nM in assay [1] and 200 to 1500 nM in assay [3]. Also, in assay [2], the EC50 (as a rule, the midpoint of the concentration-response curve) is less than 0.3 nM.
As to `CC[C@H](C)[C@H](NC(=O)[C@H](Cc1ccccc1)NC(=O)[C@H](CCC(=O)O)NC(=O)[C@H](CCCNC(=N)N)NC(=O)[C@H](C)NC(=O)[C@H](C)NC(=O)[C@H](CCC(N)=O)NC(=O)[C@H](CCC(=O)O)NC(=O)[C@H](CCC(=O)O)NC(=O)[C@H](CC(C)C)NC(=O)[C@H](Cc1ccc(O)cc1)NC(=O)[C@H](CO)NC(=O)[C@H](CO)NC(=O)[C@@H](NC(=O)[C@H](CC(=O)O)NC(=O)[C@H](CO)NC(=O)[C@@H](NC(=O)[C@H](Cc1ccccc1)NC(=O)[C@@H](NC(=O)CNC(=O)[C@H](CCC(=O)O)NC(=O)[C@H](C)NC(=O)[C@@H](N)Cc1c[nH]cn1)[C@@H](C)O)[C@@H](C)O)C(C)C)C(=O)N[C@@H](C)C(=O)N[C@@H](Cc1c[nH]c2ccccc12)C(=O)N[C@@H](CC(C)C)C(=O)N[C@H](C(=O)O)C(C)C` [Example 7, [Glu22, Arg26]GLP-1(7-33)peptide] (H-HAEGTFTSDVSSYLEEQAAREFIAWLV-OH), the IC50 in assay [1] was 0.24 to 44 nM; in assay [3] it was 200 to 1500 nM. Also, the EC50 in assay [2] is less than 0.3 nM.
For `CC[C@H](C)[C@H](NC(=O)[C@H](Cc1ccccc1)NC(=O)[C@H](CCC(=O)O)NC(=O)[C@H](CCCNC(=N)N)NC(=O)[C@@H](NC(=O)[C@H](C)NC(=O)[C@H](CCC(N)=O)NC(=O)[C@H](CCC(=O)O)NC(=O)[C@H](CCC(=O)O)NC(=O)[C@H](CCCCN)NC(=O)[C@H](Cc1ccc(O)cc1)NC(=O)[C@H](CO)NC(=O)[C@H](CO)NC(=O)[C@@H](NC(=O)[C@H](CC(=O)O)NC(=O)[C@H](CO)NC(=O)[C@@H](NC(=O)[C@H](Cc1ccccc1)NC(=O)[C@@H](NC(=O)CNC(=O)[C@H](CCC(=O)O)NC(=O)C(C)(C)NC(=O)[C@@H](N)Cc1c[nH]cn1)[C@@H](C)O)[C@@H](C)O)C(C)C)C(C)C)C(=O)N[C@@H](CCC(=O)O)C(=O)N[C@@H](Cc1c[nH]c2ccccc12)C(=O)N[C@@H](CC(C)C)C(=O)N[C@H](C(N)=O)C(C)C` [Example 5, [Aib8,Lys20,Glu22,Val25,Arg26,Glu30] GLP-1 (7-33) Amide] (H-H[Aib]EGTFTSDVSSYKEEQAVREFIEWLV-NH2), the IC50 in assay [1] fell in the range of 0.24 to 44 nM; in assay [3] it was 200 to 1500 nM. The 50% effective concentration (EC50) in assay [2] was less than 0.3 nM.
For `CC[C@H](C)[C@H](NC(=O)[C@H](Cc1ccccc1)NC(=O)[C@H](CCC(=O)O)NC(=O)[C@H](CCCNC(=N)N)NC(=O)[C@H](C)NC(=O)[C@H](C)NC(=O)[C@H](CCC(N)=O)NC(=O)[C@H](CCC(=O)O)NC(=O)[C@H](CCC(=O)O)NC(=O)[C@H](CC(C)C)NC(=O)[C@H](Cc1ccc(O)cc1)NC(=O)[C@H](CO)NC(=O)[C@H](CO)NC(=O)[C@@H](NC(=O)[C@H](CC(=O)O)NC(=O)[C@H](CO)NC(=O)[C@@H](NC(=O)[C@H](Cc1ccccc1)NC(=O)[C@@H](NC(=O)CNC(=O)[C@H](CCC(=O)O)NC(=O)[C@H](C)NC(=O)[C@@H](N)Cc1c[nH]cn1)[C@@H](C)O)[C@@H](C)O)C(C)C)C(=O)N[C@@H](C)C(=O)N[C@@H](Cc1c[nH]c2ccccc12)C(=O)N[C@@H](CC(C)C)C(=O)N[C@H](C(N)=O)C(C)C` [Example 1, [Glu22,Arg26]GLP-1 (7-33) Amide] (H-HAEGTFTSDVSSYLEEQAAREFIAWLV-NH2) the same measures were 0.24 to 44 nM, 200 to 1500 nM and less than 0.3 nM.
